The source of these data is patent US20070225213A1, “Nucleic acid carriers for delivery of therapeutic agents” (priority 2006, published 2007).

The nature of data set [1]: Column chromatography determination of drug loading limit of NAC-drug. The following applies: Drug only (MTN, no carrier). In kind it is physicochemical. The text has this:
In a dosage form suitable for parenteral administration, the nucleic acid can be combined with the drug in an aqueous formulation of saline, dextrose or other suitable aqueous vehicle suitable for administration. It is preferred that the drug and the nucleic acid are combined in water or other suitable medium, prior to dilution in saline or media, in order to prevent inhibition of drug binding to the nucleic acid. The dosage form can be sterilized by a variety of means, and can optionally take the form of a concentrate that can be diluted in saline or other suitable vehicle prior to injection. It is preferred to minimize the amount of free drug in the injectable solution, such that the mass ratio of nucleic acid to drug is sufficient to bind most of the drug, and to limit free drug in the bloodstream. […] The percentage loading possible for other nucleic acid binding drugs will vary depending on their binding characteristics, and can be determined by column chromatography, spectrophotometry, and cytotoxicity assay methods as described herein. […]
Determination of drug loading limit of mitoxantrone (MTN) in a nucleic acid carrier (NAC) using a 2.5×9 cm G25 column (EX031904) and herring sperm DNA (HSDNA approx. range 10-100 bp Sigma-Aldrich). […] Collected 5 ml and checked absorbance scan of 0.2 ml sample on Synergy HT1. […] Collected 7.5 ml and read absorbance scan of 0.2 ml sample. […]

The subject of a further data set is MCF7. Description: Effect of plating time on uptake of NAC-MTN and MTN, fluorescence (Example 11). Type of data set: cell-based, human. Here is the method:
(§1) The effect of plating time on the differential rates of uptake between NAC-MTN and MTN were assayed in cells treated <1 hour and 24 hours after plating.
(§2) On day 1, MCF7, COS7, 3T3, and BHK21 cells were plated out in a standard tissue culture plate. After incubation of 20 minutes samples were added to cells in rows A, C, E, and G. Cells were incubated at 37C in a standard atmosphere of 5%CO2.
(§3) On day 2, samples were added to rows D, F, and H and the fluorescence was obtained EX620/EM680 S=80. Samples were removed from A,C,E and G, replaced with media and fluorescence read again. On day 2 observed significant drug toxicity in cells of rows A,C, E, G. Sample addition was postponed in row B since MCF7 were not yet confluent.
(§4) On day 3, added samples to cells in row B containing confluent MCF7's, removed samples from rows D, F, and H replaced with media and read fluorescence.
(§5) Fluorescence data from cells taken after removal of media was used to quantitate total MTN retained in the cells. Fluorescence data were converted to mg/ml MTN using a standard curve prepared with free MTN or NAC-MTN.
(§6) The percentage difference in fluorescence between cells treated with NAC-MTN or MTN alone was used to compare relative drug uptake.
(§7) The MTN fluorescence ratios were obtained by dividing MTN fluorescence of cells incubated for 24 hours by fluorescence of cells incubated 30 minutes. […] The uptake in BHK21 was roughly equivalent for NAC-MTN regardless of plate adherence, however it should be noted that BHK21 adhere very rapidly to the plate.
(§8) Fluorescence data were converted to micromolar drug concentrations (uM MTN) using a standard curve for either nucleic acid bound or unbound drug, and drug uptake ratios were obtained by dividing the t(24 hour)/t(30 min.). The ratios of absolute drug concentration per well show more dramatic differences in uptake as shown below.

For data set [2] the following is noted: intravenous administration; cited from earlier work.
For a further data set, the system named is BHK21. Description: Effect of plating time on uptake of NAC-MTN and MTN, fluorescence (Example 11). Type of data set: cell-based, hamster. How it is done: as §1, §2, §3, §4, §5, §6, §7, §8
Where [3] appears, read: cells treated 24 hour after plating.
Setting [4] is: cells treated <1 hour after plating.
Where [5] appears, read: from standard curve for bound or unbound drug.

As for `O=C1c2c(O)ccc(O)c2C(=O)c2c(NCCNCCO)ccc(NCCNCCO)c21` [MTN, mitoxantrone], in data set [1], the “G25 Column Results” value is on record as “Single band, slow”. Further, the “MTN FLUOR Ratio of t(24)/t(<1)” value with MCF7 came to 0.75; in the data set on BHK21, 0.73. Moreover, the “FLUOR (MTN fluorescence in cells)” value with MCF7 (setting [3]) came to 18819; with MCF7 (setting [4]) it was 16651; in the data set on BHK21 (setting [3]) it was 10746; with BHK21 (setting [4]) it was 9557. For the same compound, the “Ratio uM MTN of t(24)/t(<1)” value with MCF7 (setting [5]) and with BHK21 (setting [5]) was 1.2 throughout. Further, the elimination half life in data set [2] is recorded as 12 days.
